Laboratory results as given in PMC12062478, “Screening herbal and natural product libraries to aid discovery of novel allosteric modulators of human P2X7” (Purinergic Signalling, 2024).

These molecules were tested against T1, P2X7 (Homo sapiens, UniProt Q99572) (assay: ATP-induced YO-PRO-1 dye uptake in HEK-hP2X7 cells). Details: 10 µM, 10 min pre-incubation, ATP 1 mM.
T1 construct: expressed in transfected cells
T1 sequence (Q99572 1-595): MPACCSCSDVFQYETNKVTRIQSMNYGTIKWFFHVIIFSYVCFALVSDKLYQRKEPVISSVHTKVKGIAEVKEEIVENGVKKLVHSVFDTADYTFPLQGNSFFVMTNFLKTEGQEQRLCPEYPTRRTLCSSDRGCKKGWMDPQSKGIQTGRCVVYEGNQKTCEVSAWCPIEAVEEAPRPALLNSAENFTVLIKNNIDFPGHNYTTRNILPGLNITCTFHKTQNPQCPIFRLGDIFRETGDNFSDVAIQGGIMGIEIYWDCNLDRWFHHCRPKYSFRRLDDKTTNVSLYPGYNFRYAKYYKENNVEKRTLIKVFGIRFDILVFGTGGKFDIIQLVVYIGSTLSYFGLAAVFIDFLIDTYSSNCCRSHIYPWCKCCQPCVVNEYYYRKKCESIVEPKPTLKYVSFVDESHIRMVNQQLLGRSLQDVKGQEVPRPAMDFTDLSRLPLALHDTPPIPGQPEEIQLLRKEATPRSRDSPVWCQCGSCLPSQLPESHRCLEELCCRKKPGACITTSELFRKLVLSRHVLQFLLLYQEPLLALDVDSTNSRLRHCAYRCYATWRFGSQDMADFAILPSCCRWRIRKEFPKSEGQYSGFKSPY
Assay type: cell-based
Description: HEK-hP2X7 or HEK-hP2X4 cells were plated at 2.5 × 10^4 cells per well (100 µL volume) the day before experiments into poly-D-lysine (Merck Millipore) coated 96-well plates (NUNC, Fisher Scientific #167-008). The membrane impermeant dye YO-PRO-1 iodide (Life Technologies, Fisher Scientific) was used at a final concentration of 2 µM in low divalent buffer (145 mM NaCl, 5 mM KCl, 0.2 mM CaCl2, 13 mM glucose, 10 mM HEPES, pH 7.3, osm 300–310). Media were removed from the plate, and 90 µL of YO-PRO-1 buffer was added per well. Plates were warmed to 37 °C for 5 min before recording. Data was acquired on a Flexstation 3 plate reader (Molecular Devices) using excitation wavelength 490 nm, emission wavelength 520 nm, and six reads per well (PMT medium). […] […] Pipette height was set to 80 µL and the rate of injection was 4.
YO-PRO-1 dye uptake assay data is plotted as a percentage of control where control responses are measured in the absence of plant extract. Cell viability data is plotted as a percentage of control or background-corrected fluorescence data. Concentration–response graphs were plotted using GraphPad Prism v6 with a non-linear regression fit (variable slope). IC50 values were generated from collated datasets from a minimum of three independent experiments. Statistical differences were determined by one-way ANOVA statistical tests performed using GraphPad Prism v6 with Dunnett’s multiple comparison post hoc test. Significance was taken as P ≤ 0.05.
We acquired a natural product library (Set IV) containing 419 compounds from NCI DTP and tested these on P2X7 responses using a YO-PRO-1 dye uptake in HEK293 cells stably expressing human P2X7 (HEK-hP2X7). […] This allowed us to assess for any immediate effect of the injected compound, and secondly, it allowed for any potential negative modulators to be pre-incubated with P2X7.

Row | Molecule | Effect on ATP-mediated YO-PRO-1 uptake
1 | O=C(O)c1cc(O)c(O)c(OC(=O)c2cc(O)c(O)c(O)c2)c1 [Digallic acid] | able to reduce ATP-mediated YO-PRO-1 uptake
2 | COc1cc2c(c3c1c(=O)c1ccccc1n3C)C=CC(C)(C)O2 [Acronine] | able to reduce ATP-mediated YO-PRO-1 uptake

Same assay, conditions: > 30 µM, HEK-hP2X7

Row | Molecule | Effect on YO-PRO-1 uptake at high concentrations
3 | COc1c2ccoc2cc2oc(=O)ccc12 [Bergapten] | reduction of YO-PRO-1 uptake in hP2X7 cells at high concentrations
4 | CCCCCCCCCCCCCCCC(=O)O [Palmitic acid] | reduction of YO-PRO-1 uptake in hP2X7 cells at high concentrations
5 | COc1cc2ccc(=O)oc2cc1O [Scopoletin] | reduction of YO-PRO-1 uptake in hP2X7 cells at high concentrations

Same assay, conditions: AZ10606120 10 µM

Row | Molecule | Sensitivity of the potentiated ATP response to P2X7 antagonist AZ10606120
6 | Scopafungin | could be prevented by pre-treatment with the P2X7 selective antagonist, AZ10606120

Same assay, conditions: HEK-hP2X7

Row | Molecule | YO-PRO-1 uptake in the absence of ATP
7 | Scopafungin | increase in YO-PRO-1 uptake in the absence of ATP

Same assay, conditions: HEK-hP2X7, 10 min pre-treatment, ATP 1 mM; read-out: IC50 value (95% CI)

Row | Molecule | IC50 [µM]
8 | O=C1CSC(=O)N1C(CCc1ccncc1)COc1ccc(-c2cccc([N+](=O)[O-])c2)cc1 (stereo not drawn) [AZ11645373, reference compound] | 0.153
9 | COc1cc2ccc(=O)oc2cc1O [Scopoletin] | 39.9
10 | O=c1c(O)c(-c2ccc(O)cc2)oc2cc(O)cc(O)c12 [Kampferol, kaempferol] | 40

Same assay, conditions: HEK-hP2X7, NCI Natural Product Set IV compounds, Fig. 1F; read-out: IC50 (dose inhibition experiments)

Row | Molecule | IC50 [µM]
11 | O=C(O)c1cc(O)c(O)c(OC(=O)c2cc(O)c(O)c(O)c2)c1 [Digallic acid] | 4.05

Same assay, conditions: compound 10 µM

Row | Molecule | Mechanism of action from ATP concentration–response curve | Effect on ATP concentration–response curve
12 | O=C(O)c1cc(O)c(O)c(OC(=O)c2cc(O)c(O)c(O)c2)c1 [Digallic acid] | potential non-competitive mechanism of action | –
13 | Scopafungin | – | increase the maximum response to ATP and increase the sensitivity to ATP

Same assay, conditions: purified glycosides/aglycone from potentiating extracts

Row | Molecule | Effect on P2X7 responses
14 | COc1ccc2c(c1)CC=C(CO)c1cc3c(cc1-2)OCO3 [tenuifolin] | no effect on P2X7 responses

Same assay, conditions: screen for PAM activity; compound 10 µM injected 60 s before ATP

Row | Molecule | P2X7 response (% of control)
15 | COc1cc(/C=C/C(=O)CC(=O)/C=C/c2ccc(O)c(OC)c2)ccc1O [Curcumin] | 144.58 % of control
16 | C/C=C/C(=O)O [Crotonic acid] | 142.15 % of control
17 | COc1c(OC)c2c3c(nccc3c1OC)C(=O)c1cc(O)ccc1-2 [NSC785143] | 149.00 % of control
18 | CC(=O)CCCCn1c(=O)c2c(ncn2C)n(C)c1=O [Pentoxifylline, reference compound] | 140.48 % of control
19 | COC1C(C)OC(OC2CC(C)(O)Cc3cc4c(c(O)c32)C(=O)c2c(O)cc3c(c2C4=O)OC2OC3(C)C(O)C(N(C)C)C2O)C(OC)C1(C)OC (stereo not drawn) [Nogamycin] | 155.77 % of control
20 | CC(=O)O[C@H]1C(=O)[C@@]2(C)[C@H]([C@H](OC(=O)c3ccccc3)[C@]3(O)C[C@H](O)C(C)=C1C3(C)C)[C@]1(OC(C)=O)CO[C@@H]1C[C@@H]2O [Baccatin III] | 136.25 % of control
21 | C=C(NC(=O)C(=C)NC(=O)c1csc(C2=N[C@@H]3c4csc(n4)[C@H]4NC(=O)c5csc(n5)[C@H]([C@](C)(O)[C@@H](C)O)NC(=O)[C@H]5CSC(=N5)/C(=C/C)NC(=O)[C@H]([C@@H](C)O)NC(=O)c5csc(n5)[C@]3(CC2)NC(=O)[C@H](C)NC(=O)C(=C)NC(=O)C(=C)NC(=O)[C@H](C(C)C)N[C@@H]2C=Cc3c([C@H](C)O)cc(nc3[C@H]2O)C(=O)O[C@@H]4C)n1)C(N)=O [Siomycin A] | 157.10 % of control
22 | COc1cc2c3c(c1O)-c1cc(N(Cc4ccccc4)Cc4ccccc4)ccc1CC3N(C)CC2 (stereo not drawn) [NSC785176] | 159.37 % of control
23 | Nc1ncnc2c1ncn2C1OCC(O)C1O (stereo not drawn) [MLS003170979] | 129.73 % of control
24 | COc1cc2c3c(c1O)Oc1ccc(cc1)C[C@@H]1c4c(cc(OC)c(OC)c4Oc4ccc(cc4)C[C@@H]3N(C)CC2)CCN1C [NSC785173] | 148.84 % of control
25 | CC(=O)OC(C)C1C2=C(C(=O)C[C@]1(C)O)C(=O)c1c(ccc(-c3ccc4c(c3O)C(=O)C3=C(C4=O)C(C(C)OC(C)=O)[C@@](C)(O)CC3=O)c1O)C2=O (stereo partly drawn) [Julimycin II] | 180.28 % of control
26 | COC(=O)/C(=C1/OC(=O)C(c2ccccc2)=C1O)c1ccccc1 [Vulpinic acid] | 150.3 % of control
27 | CC1=C(C)C(=O)O[C@@H]([C@](C)(O)[C@H]2CC[C@H]3[C@@H]4[C@@H]5O[C@@H]5[C@@]5(O)CC=CC(=O)[C@]5(C)[C@H]4CC[C@]23C)C1 [Withanolide A] | 149.93 % of control
28 | CC(=O)CCC(=O)O [Levullinic acid] | 134.82 % of control
29 | COc1cc2c3c(c1O)-c1cc(O)ccc1CC3N(C)CC2 (stereo not drawn) [NSC785186] | 146.91 % of control
30 | Predorine | 740.31 % of control
31 | Nc1nc(=O)c2c([nH]1)NCC(CNc1ccc(C(=O)N[C@@H](CCC(=O)O)C(=O)O)cc1)N2C=O (mixture of isomers) [Folinic acid, reference compound] | 160.00 % of control
32 | Erythromycin cyclopentylproprionate | 126.67 % of control
33 | Scopafungin | 159.83 % of control
34 | COc1cc([C@@H]2c3cc4c(cc3[C@H](O)[C@H]3COC(=O)[C@@H]23)OCO4)cc(OC)c1OC [Picropodophyllin] | 145.86 % of control
35 | CC[C@H](C)C(=O)O[C@H]1CCC=C2C=C[C@H](C)[C@H](CC[C@@H](O)C[C@@H](O)CC(=O)O)[C@H]21 [Compactin] | 139.71 % of control
36 | Hexopyranuronic acid | 147.11 % of control
37 | Monoacetyl verrucan A | 170.65 % of control

Same assay, conditions: screen for potential negative allosteric modulators; compound 10 µM injected 60 s before ATP

Row | Molecule | P2X7 response (% of control)
38 | COc1cc2c(cc1O)C[C@H]1c3c(cc(OC)c(O)c3-2)CCN1C [NSC785158] | 49.59 % of control
39 | O=C(O)c1cc(O)c(O)c(OC(=O)c2cc(O)c(O)c(O)c2)c1 [Digallic acid] | 0 % of control
40 | COc1cc2c(c3c1c(=O)c1ccccc1n3C)C=CC(C)(C)O2 [Acronine] | 1.05 % of control
41 | CO[C@@H]1/C=C/O[C@@]2(C)Oc3c(C)c(O)c4c(c3C2=O)C(=N[C@@H]2CC[C@@H](O)O[C@H]2C)C=C(NC(=O)/C(C)=C\C(=O)[C@@H]2C[C@@H]2[C@H](O)[C@@H](C)[C@@H](O)[C@@H](C)[C@H](OC(C)=O)[C@@H]1C)C4=O [Tolypromycin Y] | 47.05 % of control
42 | C[C@@H]1C[C@H](C)C[C@H](C)[C@@H](O)CC(=O)O[C@H]([C@@H]2CCC[C@H]2C(=O)O)C/C=C/C=C(/C#N)[C@H](O)[C@@H](C)C1 [Borrelidin] | 42.93 % of control
43 | NC(=O)C#CC(N)=O [Aquamycin] | 15.18 % of control
44 | CO[C@H]1[C@@H](O)[C@@H](C)O[C@@H](OC2CCC3(C)C(CCC4C3C(O)CC3(C)C(C5=CC(=O)OC5)CCC43O)C2)[C@@H]1O (stereo partly drawn) [Sarnovid] | 38.95 % of control
45 | CC1(C)C[C@]23[C@@H]4COC(=O)[C@H]2CC[C@H]1[C@@H]3CC4=O [Quadrone] | 40.82 % of control
46 | COc1ccc2c(c1OC)CN1CCc3cc4c(cc3[C@@H]1C2)OCO4 [Hydroberberine] | 9.75 % of control
47 | COc1cc([C@@H]2c3cc4c(cc3C[C@H]3COC(=O)[C@@H]32)OCO4)cc(OC)c1OC [Anthricin] | 30.94 % of control
48 | CCCn1cc2c3c(cccc31)[C@H]1C[C@@H](C)CN(C)[C@@H]1C2.O=C(O)C(O)C(O)C(=O)O [NSC332294] | 29.09 % of control
49 | COc1cc(Cc2nccc3cc(OC)c(OC)cc23)c(C(C)=O)cc1OC [Acetopapaverine] | 34.92 % of control
50 | COc1cc([C@@H]2c3cc4c(c(O)c3C[C@H]3COC(=O)[C@@H]32)OCO4)cc(OC)c1OC [Β-peltatin] | 31.98 % of control
51 | C[C@H]1Oc2cc3c(-c4c(O)cc(O)c5c(O)c6c(cc45)O[C@H](C)[C@@H](C)C6=O)c(O)cc(O)c3c(O)c2C(=O)[C@@H]1C [Chaetochromin A] | 12.08 % of control
